Experimental data as given in patent US20050043262A1, “Novel specific inhibitor of the cyclin kinase inhibitor p21Waf1/Cip1 and methods of using the inhibitor” (priority 2000, published 2005).

Legend:
α-actin [1] = assay: alpha-actin level by Western blot in A431 cells; type: cell-based, human; details: 200 nM oligodeoxynucleotide
Description: (§1) Western blots: Cells were grown to confluence in 6 cm culture dishes and serum deprived. After transfection and or treatment with appropriate agonist, the cells were washed with phosphate-buffered saline and lysed in lysis buffer and the supernatant was Western blotted as described (Weiss and Nuccitelli, 1992 J. Biol. Chem., 267, p. 5608-5613).
(§2) PMA is a potent inducer of p21^Waf1/Cip1 in a variety of different cell lines (Huang et al., 1995 Proc. Natl. Acad. Sci. US.A., 92, p. 4793-4797; Michieli et al., 1994 Cancer Res., 54, p. 3391-3395) and was employed to examine p21^Waf1/Cip1 levels after antisense transfection and confirm efficacy of translation to attenuate p21^Waf1/Cip1 levels. A431 cells were transfected with 200 nM antisense p21^Waf1/Cip1 (SEQ. ID NO.:1) or sense p21^Waf1/Cip1 oligodeoxynucleotide (SEQ. ID NO.:2). After overnight incubation in serum-free medium, the cells were stimulated with PMA (100 ng/ml) for the times indicated, lysed, and the lysates were Western blotted with p21^Waf1/Cip1 or α-actin antibody.

α-actin [2] = assay: alpha-actin protein level by Western blot in A10 VSM cells; type: cell-based, rat
Description: as §1, with “et al., 1998 Am.” for “and Nuccitelli, 1992”, “Physiol., 274,” for “Biol. Chem., 267,”, “C1521-C1529).” for “5608-5613).”
At the times indicated after the overnight incubation (in hours), the medium was changed to quiescence medium and the cells were stimulated with PMA for 4 hours to show maximal p21^Waf1/Cip1 expression (FIG. 6a). The lysates were immunoblotted with (a) p21^Waf1/Cip1 or p27^Kip1 antibody or (b) α-actin antibody. This is likely due to sequence similarity between the two genes, as p21^Waf1/Cip1 shares 43% sequence identity with p27^Kip1 in the cdk/cyclin binding site (residues 27-88), located in the conserved N terminus (Nomura et al., 1997 Gene, 191, p. 211-218; Toyoshima and Hunter, 1994 Cell, 78, p. 67-74).
Using a random sequence phosphorothioate oligodeoxynucleotide (SEQ. ID NO.:3) as a control, the effect of the antisense oligodeoxynucleotide to p21 (400 nM) on p21 and α-actin protein expression in A10 VSM cells, was examined. The lysates, normalized for protein content, were Western blotted with either p21 or α-actin antibody.

Met-1 cells = details: Weiss et al., Cancer Lett. 2003; cited from earlier work
laminin = assay: Laminin production and secretion (immunoblot of lysate and conditioned media); type: cell-based, rat; details: VSM cells, 400 nM, TGF-β 0.1 to 10 ng/ml for 4 hours
Description: Western blots: Cells were grown to confluence in 6 cm culture dishes and serum deprived. After transfection and/or treatment with appropriate agonist, conditioned medium was removed and saved and the cells were washed with phosphate-buffered saline and lysed in lysis buffer. Both supernatant and cell lysate were normalized to the lysate protein concentrations and Western blotted as described (Weiss, R. H.; et al. Am. J. Physiol. 274: C1521-C1529; 1998).
The p21 influences on matrix protein secretion in VSM cells were determined. Levels of the matrix proteins laminin and fibronectin were examined in both TGF-β stimulated lysate and conditioned media of cells in which p21 expression had been attenuated. The cells were transfected with either antisense p21 (SEQ. ID NO.:1) (400 nM), or random sequence control (SEQ. ID NO.:3) (400 nM) oligodeoxynucleotide, and then stimulated with TGF-β at for 0.1 to 10 ng/ml for 4 hours. Conditioned media and cell lysate were collected, and both medium and lysate volumes were normalized for the protein content in total cell lysate to exclude any skewing of the data due to cell proliferation. The proteins were electrophoresed and immunoblotted with either fibronectin (after immunoprecipitation to eliminate extraneous bands which appeared in the absence of this procedure) or laminin antibody.

p21^Waf1/Cip1 = assay: PMA-induced p21 level by Western blot in A431 cells; type: cell-based, human; details: 200 nM oligodeoxynucleotide, PMA 100 ng/ml up to 6 hours
Description: as §1, §2

Rb = Rb hyperphosphorylation by Western blot in A431 cells; type: cell-based, human; details: 400 nM, 10% serum 6 and 24 hours
Description: Upon activation by cyclin/cdk complexes, the Rb protein in turn becomes phosphorylated, causing it to release the transcription factors known as E2F, leading to early oncogene expression and ultimately to cell growth. An effect of p21^Waf1/Cip1 on cdk/Rb interaction would be evident by a change in phosphorylation state of the Rb protein: this property can be assessed by examining small changes in gel mobility of this protein. A431 cells were transfected with 400 nM antisense p21^Waf1/Cip1 oligodeoxynucleotide (SEQ. ID NO.:1) or with lipofectin only (no DNA). After overnight incubation in serum-free medium, the cells were stimulated with complete media for 6 or 24 hours, lysed, and the lysates were Western blotted with Rb antibody.

MCF7 cells = assay: [3H]thymidine incorporation in MCF7 cells; type: cell-based, human; details: 200 nM, serum 24 hours
Description: Cell Culture and DNA Synthesis: T47D (ductal carcinoma) and MCF7 (adenocarcinoma) human breast cancer cell lines were obtained from the American Type Culture Collection. All cell lines were maintained according to vendors' recommendations. The cells were growth arrested by placing them in serum-free quiescence media and exposed to 10% serum-containing media as indicated. [^3H]Thymidine incorporation was assessed as described previously (Weiss, R. H., and Nuccitelli, R., J. Biol. Chem., 267: 5608-5613, 1992).
Apoptotic cells will not incorporate thymidine into DNA during S phase, but [^3H]thymidine incorporation experiments will not distinguish between G1→S arrest and apoptosis. Serum-starved cells were transfected with 200 nM antisense p21 and control ODN, stimulated with serum-containing media, and examined for their ability to incorporate [^3H]thymidine into DNA. […] Antisense p21 attenuates [^3H]thymidine incorporation. MCF7 and T47D cells were grown to confluence, serum starved for 24 hours, and lipofected with antisense p21 (AS) or control (SC) ODN at the concentrations indicated (in nM). […] Serum was added for 24 hours, and the cells were incubated with [^3H]thymidine for the last 6 hours. DNA synthesis was assessed by [^3H]thymidine incorporation and is expressed as mean +SD of 3 wells/data point. *, P <0.05 compared with antisense p21 ODN transfection. […]

Substance | levels of α-actin (α-actin [1]) | α-actin protein level (α-actin [2]; 400 nM) | levels of α-actin (α-actin [2]; identical conditions to p21 blot) | growth of tumors in a mouse model of breast cancer (Met-1 cells) | production and secretion of laminin (laminin) | PMA-induced p21^Waf1/Cip1 levels (p21^Waf1/Cip1) | serum-induced Rb hyperphosphorylation versus no-DNA control (Rb) | [3H]thymidine incorporation (DNA incorporation) (MCF7 cells)
5′-GACATCACCAGGATCGGACAT-3′ | not altered | no effect | not altered | attenuates growth of tumors | markedly reduced | significant attenuation | no difference | 
5′-ATC-CCC-AGC-CGG-TTC-TGA-CAT-3′ (antisense ATCCCCAGCCGGTTCTGACAT; listed as DNA, chemistry not fully specified) [antisense p21 ODN] |  |  |  |  |  |  |  | significant attenuation
